The source of these data is ChEMBL document CHEMBL1201862, “PubChem BioAssay data set” (2004).

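Test compounds were applied to cells in 96-well plates for 48 hours at 5 doses. Here, GI50 denotes the concentration required for 50% inhibition of growth.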 The source made the active and inactive calls. Rule as the data show it: active = GI50 up to about 1.1 µM and inactive = higher.

Test systems include ACHN; BT-549; COLO 205; KM12; MDA-MB-231; MDA-MB-435; NCI-H460; NCI-H522; NCI/ADR-RES; OVCAR-5; PC-3; RPMI-8226; RXF 393; SF-295; SF-539; SK-MEL-2; SW-620; TK-10; UACC-257; UO-31.
Test in all cases: NCI tumour cell line growth inhibition, 48 h

As for `CN(C)CCCN1c2ccccc2Sc2cnccc21`, the GI50 in the assay on ACHN was 52.8 µM (inactive); in the assay with BT-549, > 100 µM (inactive); in the assay with COLO 205, 47 µM (inactive); with KM12, > 100 µM (inactive); in the assay with MDA-MB-231, 42.1 µM (inactive); in the assay with MDA-MB-435 it was 69.7 µM (inactive). In addition, the GI50 in the assay with NCI-H460 was 32.1 µM (inactive); with NCI-H522, 65 µM (inactive); in the assay with NCI/ADR-RES, > 100 µM (inactive); in the assay on OVCAR-5 it was > 100 µM (inactive); in the assay on PC-3, > 100 µM (inactive); in the assay on RPMI-8226, 79.1 µM (inactive). Further, the GI50 in the assay with RXF 393 was 83 µM (inactive); in the assay on SF-295 it was 35.1 µM (inactive); in the assay on SF-539, 54.6 µM (inactive); with SK-MEL-2, 28.4 µM (inactive); in the assay on SW-620, > 100 µM (inactive); in the assay on TK-10, 42.4 µM (inactive). The GI50 is 19.7 µM (inactive) in the assay on UACC-257 and > 100 µM (inactive) in the assay on UO-31.
On to `CCCCCCCCCC[C@@H](O)[C@H]1CC[C@H]([C@H]2CC[C@H]([C@H](O)CCCCCCCCCC[C@@H]3CC(CC(C)=O)C(=O)O3)O2)O1` (stereo not given in full), for which the GI50 with ACHN was > 28.5 µM (inactive); in the assay on BT-549, 46.2 µM (inactive); with COLO 205 it was 13 µM (inactive); with KM12 it was 15.8 µM (inactive); in the assay on MDA-MB-231, > 50 µM (inactive); in the assay on MDA-MB-435, > 39.1 µM (inactive). The GI50 is 0.254 µM (active) with NCI-H460; 7.87 µM (inactive) in the assay with NCI-H522; 4.69 µM (inactive) with NCI/ADR-RES; > 50 µM (inactive) with OVCAR-5; 21.7 µM (inactive) with PC-3; 0.231 µM (active) in the assay on RPMI-8226. Further, the GI50 is 20.7 µM (inactive) in the assay on RXF 393; 1.94 µM (inactive) in the assay with SF-295; 17.3 µM (inactive) with SF-539; > 40.9 µM (inactive) in the assay on SK-MEL-2; 26.2 µM (inactive) in the assay on SW-620; > 39.4 µM (inactive) in the assay on TK-10. In addition, the GI50 is 0.914 µM (active) with UACC-257 and 23.7 µM (inactive) in the assay with UO-31.
For `COc1cc2oc3cc(=O)cc4oc(-c5ccccc5)cc(c2c2c1CCC(c1ccccc1)O2)c43` (stereo not given), the GI50 in the assay on ACHN was 19.3 µM (inactive); in the assay with BT-549, 80.5 µM (inactive); in the assay with COLO 205, 18.8 µM (inactive); with KM12, 17 µM (inactive); in the assay on MDA-MB-231 it was 22.3 µM (inactive); in the assay on MDA-MB-435 it was 22.7 µM (inactive). The GI50 in the assay on NCI-H460 is 27.5 µM (inactive); with NCI-H522 it was 34.8 µM (inactive); in the assay on NCI/ADR-RES it was > 100 µM (inactive); in the assay with OVCAR-5 it was 56 µM (inactive); with PC-3, 47.8 µM (inactive); in the assay on RPMI-8226 it was 3.34 µM (inactive). For the same compound, the GI50 is 54.7 µM (inactive) with RXF 393; 19.1 µM (inactive) with SF-295; 24.5 µM (inactive) with SF-539; 33 µM (inactive) with SK-MEL-2; 67.1 µM (inactive) with SW-620; 26.6 µM (inactive) in the assay on TK-10. The GI50 was 26.7 µM (inactive) in the assay on UACC-257 and 55.6 µM (inactive) in the assay with UO-31.
Take `C=C1C(=O)O[C@@H]2CC(CO)=C([C@@H](C)CCCO)[C@@H](OC(=O)/C(C)=C\C)[C@H]12`: the GI50 in the assay on ACHN is 15.1 µM (inactive); in the assay with BT-549, 14.6 µM (inactive); in the assay on COLO 205, 14.5 µM (inactive); with KM12, 17.3 µM (inactive); in the assay on MDA-MB-231, 24.9 µM (inactive); with MDA-MB-435 it was 15.8 µM (inactive). Moreover, the GI50 with NCI-H460 was 9.98 µM (inactive); in the assay with NCI-H522, 2.62 µM (inactive); in the assay on NCI/ADR-RES it was 20.2 µM (inactive); with OVCAR-5, 28.5 µM (inactive); in the assay with PC-3, 16 µM (inactive); in the assay with RPMI-8226, 5.05 µM (inactive). Also, the GI50 with RXF 393 was 11.9 µM (inactive); with SF-295, 16.9 µM (inactive); in the assay on SF-539, 22.2 µM (inactive); in the assay on SK-MEL-2, 20.9 µM (inactive); in the assay with SW-620 it was 14.7 µM (inactive); with TK-10, 18.8 µM (inactive). Further, the GI50 is 15.6 µM (inactive) with UACC-257 and 16.8 µM (inactive) in the assay with UO-31.
In the case of `CCC(C#N)NC(=O)NC(C#N)CC` (stereo not given), the GI50 with ACHN, in the assay with BT-549, in the assay with COLO 205, with KM12, in the assay on MDA-MB-231 and in the assay on MDA-MB-435 was > 100 µM (inactive) throughout. The GI50 in the assay on NCI-H460 is > 100 µM (inactive); in the assay with NCI-H522, > 100 µM (inactive); with NCI/ADR-RES, > 100 µM (inactive); in the assay on OVCAR-5, > 100 µM (inactive); in the assay on PC-3, 91.8 µM (inactive); in the assay on RPMI-8226, > 100 µM (inactive). The GI50 with RXF 393, with SF-295, in the assay on SF-539, in the assay on SK-MEL-2, with SW-620 and in the assay with TK-10 was > 100 µM (inactive) each time. For the same compound, the GI50 in the assay on UACC-257 was > 100 µM (inactive); in the assay with UO-31, 58.5 µM (inactive).
Regarding `Cc1cc(/N=C/c2ccc(C#N)cc2)n(-c2ccccc2)n1`, the GI50 in the assay on ACHN was > 100 µM (inactive); in the assay with BT-549, 93.3 µM (inactive); with COLO 205, 31.3 µM (inactive); in the assay on KM12 it was 56.1 µM (inactive); in the assay with MDA-MB-231 it was > 100 µM (inactive); with MDA-MB-435, 37 µM (inactive). The GI50 with NCI-H460 was > 100 µM (inactive); in the assay with NCI-H522 it was 72.4 µM (inactive); in the assay with NCI/ADR-RES it was 65.8 µM (inactive); in the assay with OVCAR-5, > 100 µM (inactive); in the assay on PC-3, 89.1 µM (inactive); with RPMI-8226, 26.2 µM (inactive). Also, the GI50 in the assay on RXF 393 was > 100 µM (inactive); with SF-295 it was 81.7 µM (inactive); in the assay with SF-539 it was 99.3 µM (inactive); with SK-MEL-2, > 100 µM (inactive); in the assay on SW-620 it was 49.4 µM (inactive); with TK-10, > 100 µM (inactive). Besides, the GI50 in the assay on UACC-257 and in the assay with UO-31 was > 100 µM (inactive) each time.
For `Nc1[nH]c(Nc2ccc(Cl)c(Cl)c2)nc2ncnc1-2`, the GI50 is 9.89 µM (inactive) with ACHN; 12.9 µM (inactive) in the assay with BT-549; 20.7 µM (inactive) in the assay with COLO 205; 13.7 µM (inactive) in the assay with KM12; 14 µM (inactive) in the assay with MDA-MB-231; 16.6 µM (inactive) with MDA-MB-435. The GI50 with NCI-H460 is 15.5 µM (inactive); in the assay with NCI-H522, 15.3 µM (inactive); with NCI/ADR-RES, 15.9 µM (inactive); with OVCAR-5 it was 25.5 µM (inactive); in the assay with PC-3 it was 12 µM (inactive); in the assay with RPMI-8226, 14.5 µM (inactive). Moreover, the GI50 was 4.78 µM (inactive) with RXF 393; 17.5 µM (inactive) with SF-295; 12.4 µM (inactive) with SF-539; 17.5 µM (inactive) in the assay on SK-MEL-2; 18.1 µM (inactive) in the assay with SW-620; 13.2 µM (inactive) in the assay on TK-10. The figures for the GI50 in the assay on UACC-257 and in the assay on UO-31 were 17.5 µM (inactive) and 8.73 µM (inactive), respectively.
